# Source: patent publication US8796302B2 (priority 2004, dated 2014)
# Key:
# [1] = test system: GalN/LPS-induced liver gene expression; assay: Liver gene expression (real-time RT-PCR) after GalN/LPS; type: in vivo, mouse
# Description: Total RNA was extracted from liver tissues (n=4 to 5) by Trizol reagent (Sigma, St. Louis, Mo.) and purified with an RNeasy column (Qiagen, Valencia, Calif.). Expression of the selected genes was quantified using real-time RT-PCR analysis that began by reverse transcribing the samples with MuLV reverse transcriptase and oligo-dT primers.
# The SYBR green DNA PCR kit (Applied Biosystems, Foster City, Calif.) was used for real-time PCR analysis. The relative differences in expression between groups were expressed using cycle time (Ct) values and the relative differences between groups were expressed as relative increases setting control as 100%. Assuming that the Ct value is reflective of the initial starting copy and that there is 100% efficacy, a difference of one cycle is equivalent to a two-fold difference in starting copy.
# PGE2 = PGE2 release (EIA) after LPS; type: cell-based, rat
# CD-1 mice given LPS/GalN = assay: Survival in LPS/GalN endotoxic shock; type: in vivo, mouse; conditions: for Rate of survival % / No. of animals survived: 12 hrs; for Rate of survival: 30 min before and 2, 4 hr after LPS/GalN; for Rate of survival / Survived animal: 12 hours
# Description: Animal studies were performed in accordance with National Institutes of Health Guidelines and with the approval of the Institute's Animal Care and Use Committee, and followed NIH guidelines. Male, CD-1 mice (6-week-old) were purchased from Charles River laboratories, fed on a standard diet and with tap water ad libitum for two weeks. Environmental conditions were standardized, including a room temperature of 21° C. and 12 hours artificial lighting. Mice were fasted 12 hrs before use.
# Endotoxic shock was induced in the mice by administering a single intraperitoneal dose of lipopolysaccharide/D-(+/−)Glactosomine (Sigma, St. Louis, Mo.) (LPS/GalN) (20 μg/700 mg/kg) in saline. To test whether DM has protective effects on septic shock, varying concentrations (6.25, 12.5 and 25 mg/kg) of DM were injected into the mice subcutaneously 30 min before, and 2, and 4 hr after the injection of LPS/GalN. Control mice received the same amount of saline. At different time points, the animals were killed, and serum and liver samples were collected.
# To examine the therapeutic effects of DM, animals were treated with […] DM at 30 min before LPS/GalN injection, and 30, 60 and 120 min after LPS/GalN administration. Serum ALT was measured to evaluate the therapeutic effects of the DM. Survival rate was evaluated within 12 hours after endotoxin administration.
# Endotoxic shock were induced in mice in the same was as Example 16. The mice were given LPS/GalN (20 μg/700 mg/kg, ip) with or without the administration of DM (10 mg/kg, 1 μg/kg and 100 pg/kg, s.c.) 30 min before LPS/GalN. The survival rate of the animals was evaluated 12 hrs after LPS/GalN treatment.
# COX2 = assay: Western blot of COX2 in microglia enriched cultures; type: cell-based, rat; conditions: femto-molar DM, 30 min pretreatment, LPS
# Description: (§1) Western blots were used to analyze possible effects of DM on iNOS and COX2 production in rat microglia enriched cultures. The cultures were prepared and treated with vehicle, OM DM, 10^−14DM, LPS alone, and LPS with different concentrations of DM. The production of iNOS (inducible nitric oxide synthenase) and COX2 (cycloxyase 2) in the culture extracts were detected by Western Blot assay. Data in FIG. 9B represent the mean±S.E.
# superoxide = assay: Superoxide release (SOD-inhibitable cytochrome c reduction) after LPS; type: cell-based, rat
# Description: The release of superoxide was determined by measuring the superoxide dismutase (SOD)-inhibitable reduction of cytochrome c. To measure the immediate release of superoxide from microglia-enriched or neuron-glia after stimulation, cultures grown in 96-well plates were switched to phenol red-free HBSS (50 μl/well). To each well was added 50 μl of HBSS containing vehicle or DM. The cultures were then incubated at about 37° C. for about 30 min followed by 50 μl of ferricytochrome c (100 μM) in HBSS, with and without 600 U/ml SOD, 50 μl of vehicle or LPS in HBSS. The absorbance at 550 nm was read with a SpectraMax Plus microplate spectrophotometer (Molecular Devices, Sunnyvale, Calif.).
# This example tests whether or not post-treatment with DM is still neuroprotective in LPS-induced neurotoxicity. Neuron-glia co-cultures as prepared in Example 1 were first treated with LPS (20 ng/ml) for twelve hours, and then LPS was removed by removing the media from the cultures and washing twice with PBS. Different concentrations of DM (10^−5, 10^−10, and 10^−14 M) were then added to the cultures and incubation was continued for another 6 or 7 days. The DA uptake and the superoxide production were measured as in Example 1 and 5. Results are expressed as a percentage of the control cultures and are the mean±S.E.M of three to six experiments with triplicates in each experiment. ##, P<0.01 compared with control culture; *, P<0.05 compared with the LPS-treated culture.
# Primary enriched-microglia cultures were prepared as in Example 1. […] The intracellular ROS concentrations and superoxide amounts were measured as in Example 5. The data are expressed as the percent of the control cultures and are the mean±SEM of three experiments performed in triplicate. *P<0.05, **P<0.01, compared to control.
# iNOS = assay: Western blot of iNOS in microglia enriched cultures; type: cell-based, rat; conditions: femto-molar DM, 30 min pretreatment, LPS
# Description: as §1
# [2] = ratio to control, 12 hr, DM 12.5 mg/kg sc x2
# [3] = DM 10^−5 M and 10^−14 M pretreatment
structure (smiles),measurement,setting,value
"COc1ccc2c(c1)[C@@]13CCCC[C@H]1[C@@H](C2)N(C)CC3 [DM, d-3-methoxy-N-methylmorphinan]","MIP-2 expression, LPS + DM","[1]; 12 hr after GalN/LPS, DM 12.5 mg/kg sc x2, controls 1.0, LPS/GalN alone 153.3 ± 6.4",39.0 ± 2.1 fold
same,"GADD153 expression, LPS + DM","[1]; 12 hr, DM 12.5 mg/kg sc x2, controls 1.0, LPS/GalN alone 7.4 ± 0.3",2.7 ± 1.3 fold
same,"ICAM-1 expression, LPS + DM","[1]; 12 hr, DM 12.5 mg/kg sc x2, controls 1.0, LPS/GalN alone 8.45 ± 1.3",5.05 ± 2.7 fold
same,"mKC expression, LPS + DM","[1]; 12 hr, DM 12.5 mg/kg sc x2, controls 1.0, LPS/GalN alone 13.7 ± 2.9",5.8 ± 1.6 fold
same,"GADD45 expression, LPS + DM","[1]; 12 hr, DM 12.5 mg/kg sc x2, controls 1.0, LPS/GalN alone 24.6 ± 12.4",5.3 ± 2.4 fold
same,"IL-10 expression, LPS + DM","[1]; 12 hr, DM 12.5 mg/kg sc x2, controls 1.0, LPS/GalN alone 25.3 ± 2.9",15.0 ± 3.3 fold
same,"c-jun/AP-1 expression, LPS + DM","[1]; 12 hr, DM 12.5 mg/kg sc x2, controls 1.0, LPS/GalN alone 28.0 ± 7.5",9.1 ± 0.8 fold
same,"c-myc expression, LPS + DM","[1]; 12 hr, DM 12.5 mg/kg sc x2, controls 1.0, LPS/GalN alone 45.4 ± 3.6",18.4 ± 2.1 fold
same,"Thrombospondin-1 expression, LPS + DM","[1]; 12 hr, DM 12.5 mg/kg sc x2, controls 1.0, LPS/GalN alone 94.2 ± 2.5",56.0 ± 1.57 fold
same,"IL-6 expression, LPS + DM","[1]; 12 hr, DM 12.5 mg/kg sc x2, controls 1.0, LPS/GalN alone 153.4 ± 13.3",43.6 ± 6.3 fold
same,"GADD45, LPS + DM/Cont",[1]; [2],5.3 fold
same,"GADD153, LPS + DM/Cont",[1]; [2],2.7 fold
same,"ICAM-1, LPS + DM/Cont",[1]; [2],5.05 fold
same,"IL-6, LPS + DM/Cont",[1]; [2],43.6 fold
same,"IL-10, LPS + DM/Cont",[1]; [2],15 fold
same,"MIP-2, LPS + DM/Cont",[1]; [2],39.0 fold
same,"Thrombospondin-1, LPS + DM/Cont",[1]; [2],56.0 fold
same,"c-jun/AP-1, LPS + DM/Cont",[1]; [2],9.1 fold
same,"c-myc, LPS + DM/Cont",[1]; [2],18.4 fold
same,"mKC, LPS + DM/Cont",[1]; [2],5.8 fold
same,LPS-induced increase in the release of PGE2,PGE2; [3],significantly decreased
same,LPS-induced increase in the release of PGE2,PGE2; DM 10^−10 M pretreatment,no significant reduction
same,"PGE2 production, post treatment","PGE2; femtomolar DM after removal of LPS (20 ng/ml, 12 h), 24 h",reduction of NO and PGE2 production
same,Rate of survival %,CD-1 mice given LPS/GalN; DM 100 pg/kg s.c. 30 min before LPS/GalN,76.6%
same,No. of animals survived,"CD-1 mice given LPS/GalN; DM 100 pg/kg s.c., 47 animals in group",36
same,Rate of survival %,CD-1 mice given LPS/GalN; DM 1 ug/kg s.c. 30 min before LPS/GalN,58.8%
same,No. of animals survived,"CD-1 mice given LPS/GalN; DM 1 ug/kg s.c., 17 animals in group",10
same,Rate of survival,CD-1 mice given LPS/GalN; DM 6.25 mg/kg,67%
same,Rate of survival,"CD-1 mice given LPS/GalN; DM 6.25 mg/kg, listed as Dextromethorphan",66.6%
same,Survived animal,"CD-1 mice given LPS/GalN; DM 6.25 mg/kg, n = 12",8
same,Rate of survival %,CD-1 mice given LPS/GalN; DM 10 mg/kg s.c. 30 min before LPS/GalN,84.6%
same,No. of animals survived,"CD-1 mice given LPS/GalN; DM 10 mg/kg s.c., 26 animals in group",22
same,Rate of survival,CD-1 mice given LPS/GalN; DM 12.5 mg/kg,about 90%
same,Rate of survival,"CD-1 mice given LPS/GalN; DM 12.5 mg/kg, listed as Dextromethorphan",89.3%
same,Survived animal,"CD-1 mice given LPS/GalN; DM 12.5 mg/kg, n = 56",50
same,Rate of survival,CD-1 mice given LPS/GalN; DM 25 mg/kg,about 90%
same,Rate of survival,"CD-1 mice given LPS/GalN; DM 25 mg/kg, listed as Dextromethorphan",91.6%
same,Survived animal,"CD-1 mice given LPS/GalN; DM 25 mg/kg, n = 12",11
same,protection against LPS/GalN-induced lethal shock,CD-1 mice given LPS/GalN; DM 30 min post LPS/GalN challenge,also observed
same,protein content of COX2,COX2,failing to affect the protein content
same,LPS-induced increase in the release of superoxide,superoxide; [3],significantly decreased
same,"LPS-induced increase in superoxide production, post-treatment","superoxide; DM 10^−5 and 10^−14 M post-treatment, 24 h after LPS",significantly inhibited LPS-induced increase in superoxide production
same,LPS-induced increase in the release of superoxide,superoxide; DM 10^−10 M pretreatment,no significant reduction
same,production of superoxide,"superoxide; DM 10^−10 M, pre- or post-treatment",neither pre-treatment nor post-treatment with DM at 10^−10 M significantly affected the production of superoxide
same,protein content of iNOS,iNOS,failing to affect the protein content
